Assay results published in patent US20060135415A1, “Immunomodulation and effect on cell processes relating to serotonin family receptors and the blood-brain barrier” (priority 2002, published 2006).

Legend:
[1] = test system: murine lymphocytes (BALB/c responders, C57/B6 stimulators); assay: Murine mixed lymphocyte reaction (BALB/c vs. C57BL6); assay type: cell-based, mouse; settings: FIG. 10
Procedure: MLRs were performed essentially as described in Current Protocols in Immunology (1999, Section 3.12.6-3.12.7). That is, the primary spleen cells obtained from C57/B6J mice were used as stimulators. They were purified as described in Current Protocols in Immunology (1999, Section 3.1.5), and were irradiated (35 Gy) at the Hahnemann Hospital (Philadelphia, Pa.) blood bank facility. Primary spleen cells obtained from BALB/c/BYJ were depleted from the adherent cells using a nylon wool column, and were used as responders.
The various inhibitors were pre-plated onto 96 well, U-bottom plates and all experimental conditions were assayed at least in triplicate. 100,000 C57/B6 cells in RPMI medium, supplemented with 10% FBS, were plated into each well. 200,000 of BALB/c/BYJ cells were plated over the stimulator cells, to a final volume of 200 μl/well. Background controls received either no BALB/c cells, or no C57/B6 cells. One micro Ci of tritiated thymidine was added to each well after 4 days, and the plates were harvested 12 hours later.

[2] = test system: allogeneic CTL response against P815 cells; assay: Murine allograft model, CTL killing of P815 target cells by splenocytes; assay type: in vivo, C57BL/6J mice; settings: 5HT antagonists 200 μg/injection tail vein days 6 and 8; Cyclosporin A 100 μg ip daily from day −2; sacrifice day 14 (FIGS. 13, 14)
Procedure: The in vivo validation screen used was an art-recognized murine allogeneic rejection model as described in Zhan et al., 2000. For this assay, a complete MHC miss-match system was employed wherein 5×10^6 P815 cells ([H-2^d] DBA/2 mastocytoma) were injected into the peritoneal cavity of C57BL/6J (H-2^b) mice on day 0 of the experiment. These mice typically generate a strong cytotoxic T lymphocyte (CTL) reaction in response to P815 cells. Following the initial P815 cell inoculation, the mice were allowed to develop a CTL response (this usually takes about 10-14 days). […] Mice were then sacrificed on day 14 of the experiment as indicated in the figures; and the allogeneic CTL response was assayed as described previously (Tretiakova et al., 2000, Nature Biotechnology 18:984-988). The primary spleen cells from the treated and untreated animals were used in the direct CTL readout. Freshly obtained primary spleen cells were incubated with the [^3H] labeled target cells (P815 cells) at 100:1, 50:1, 25:1, and 12.5:1 ratios for 3.5 hours at 37° C. and harvested using a PHD harvester. The percentage of specific killing was determined using the formula % kill=(S−E)/S, where S is the amount of the DNA retained by the target cells in the absence of the effector cells and E is the amount of retained DNA in the presence of the effector cells (expressed in counts per minute; cpm).
This is an art-recognized model of allograft […] rejection based on that described by […]. (2000). In this model, there is a complete MHC mismatch between the P815 cells (H-2^d) and the C57BL6 mouse (H-2^b), thus ensuring an aggressive immune response. The data disclosed in FIG. 13, depicts results of experiments that included 6 treatment groups, each group consisting of three mice. Each mouse received 5×10^6 P815 cells injected into the peritoneal cavity on day 0 of the study. The first group was an untreated control group, which was used to establish the baseline response of the mice against the allogeneic stimulus. These mice, without any further treatments, were sacrificed, as were the other treatment groups, on day 14 of the study and their splenocytes assayed for target-specific killing of the P815 cells.
The average kill observed for the untreated group was about 45% at an effector to target ratio of 100:1. The second group was treated with risperidone, a 5HT-2 antagonist, administered via a tail vein bolus injection (200 μg/injection) on days 6 and 8 of the study. The timing of the drug administration was selected to ensure that the T cells were fully activated prior to the drug treatment. The third group was treated with propanolol, a 5HT-1 antagonist. All of the 5HT receptor antagonist-treated groups were treated as described for the risperidone-treated group. The fourth group was treated chronically with CyclosporinA. The Cyclosporin A was administered ip at a dosage of 100 μg/injection starting two days prior to the onset of the study, i.e., at day −2, and the injections were continued on a daily basis for the duration of the study.
Finally, studies conducted in vivo using the CD8-dependent allograft rejection model, in which P815 cells (a rapidly growing cell line taken from a mastocytoma in a DBA mouse), were expanded and used to create a robust rejection response in a C57BL6 mouse. In this study the mice received 5×10^6 P815 cells injected into their peritoneal cavity on day 0 of the study. The first group was an untreated control group (naïve animals), used to acquire the baseline response of the mice against the allogeneic stimulus. The positive controls were treated with the allogeneic cells without any further treatments. These animals were used to assess the induced allogeneic response against the P815 cells. […]

[3] = test system: ConA stimulated human lymphocytes; assay: Viable cell counts (trypan blue) during ConA stimulation; assay type: cell-based; settings: 10 μg/ml ConA, manual counts over time (FIG. 11)
Procedure: FIG. 11 is a diagram depicting the effect of a 5HT type 1 receptor antagonist and a 5HT type 2 receptor antagonist on the cell numbers occurring during the mitogenic stimulation of human lymphocyte activation. The cells were stimulated with 10 μg/ml ConA. The cells were repurified on a Ficoll gradient prior to addition of the inhibitor. Trypan blue exclusion was used to count the viable cells.
To further assess the effects of propanolol (a general 5-HTR 1 antagonist) and risperidone (a general 5-HTR 2 antagonist) on the mitogenically stimulated lymphocyte culture, the number of viable cells were manually counted as the assay progressed. If the cells were not stimulated, there was no detectable change in the number of viable cells. When the cells were stimulated with ConA, a small lag period was observed and the beginning of the growth phase compared to the stimulation response curve observed in the absence of the inhibitor. […] Apparently, there is no decrease or increase compared with the starting cell numbers. It is unclear whether or not this is due too anergy, an inability to initiate the activation pathway, or both. […] Thus, based on the data presented here, the classes of antagonists that inhibit the type 2 serotonin receptors appear to be rate limiting for the lymphocyte activation processes.

[4] = test system: T cells in macrophage-conditioned media; assay: Macrophage media-conditioning study, T cell proliferation in conditioned media; assay type: cell-based, mouse; settings: assay shown in FIG. 1
[5] = test system: ConA stimulated human lymphocytes; assay: Human mitogenic (ConA) stimulation, 3H-thymidine incorporation; assay type: cell-based; settings: for relief of phenelzine-induced inhibition / proliferative response, reagent added alone: 1 μg/ml ConA; for relief of phenelzine-induced inhibition: phenelzine-inhibited cells, reagents 100 μM (FIG. 6); for proliferative response, reagent added alone: reagent 100 μM (FIG. 6); for stimulation of ConA-activated human PBLs: reagents at 400 μM, time course (FIG. 4)
Procedure: Blood from healthy volunteers was drawn using venipuncture, using Vacutainer collection sets and heparinized collection vials. The blood was diluted 1:1 using HBSS to a total volume of 30 ml in 50 ml conical tubes (Fisher Scientific, Co., Pittsburgh, Pa.). […] Cells from the buffy coats were collected and the residual Histopaque was washed away using repeated centrifugations in HBSS. After washes, cells were resuspended at 5 million cells per ml in RPMI, supplemented with 2% FBS. To remove adherent cells, the suspension was plated onto a 6 well flat-bottom plate (Corning Costar), 3 ml/well, and incubated for 2 hours at 37° C., 5% CO2. Non-adherent cells were harvested after this incubation, were counted and resuspended in RPMI supplemented with 10% human serum (Sigma).
All drugs were pre-plated before the cell suspension was added onto each well of a 96-well round-bottom plate. All experimental conditions were assayed in at least triplicate. Cells suspended in RPMI supplemented with 10% human serum were plated at 100,000 cells per well to a final volume of 200 μl. […] Control samples received no ConA stimulation. The plates were incubated at 37° C. and 5% CO2.

| Compound | outcome of murine MLR [1] | allograft (CTL) response [2] | number of viable cells [3] | restoration of T cell proliferation in conditioned media [4] | relief of phenelzine-induced inhibition [5] | proliferative response, reagent added alone [5] | stimulation of ConA-activated human PBLs [5] | further results |
| --- | --- | --- | --- | --- | --- | --- | --- | --- |
| CNc1cc(NS(=O)(=O)c2ccc(N)cc2)nc(NC)n1 [Ro 04-679] | had no effects on the outcome of the assay | – | – | – | – | – | – | – |
| Cc1nc2n(c(=O)c1CCN1CCC(c3noc4cc(F)ccc34)CC1)CCCC2 [risperidone] | – | inhibited the allograft response to varying degrees | caused a brief cell increase, followed by the elimination of the cells in culture | – | – | – | – | – |
| CC(C)NC[C@H](O)COc1cccc2ccccc12 (racemic) [propanolol] | – | did not protect the mice from the allograft rejection response | prevents the cell from growing | – | – | – | – | – |
| N[C@@H](Cc1c[nH]c2ccccc12)C(=O)O [tryptophan] | – | – | – | had no effect | had very little effect | enhanced the proliferative response | enhanced the maximal stimulation of the cells | proliferative response ([5]; 0.1 μg/ml ConA, harvest 72 hours (FIG. 5A)): augments the proliferative response; proliferative response ([5]; highest ConA dose 10 μg/ml, harvest 72 hours (FIG. 5C)): no enhancement at the highest level |
| NCCc1c[nH]c2ccc(O)cc12 [serotonin, 5-hydroxytryptamine] | – | – | – | only marginally restored the assay | caused the assay to rebound to baseline levels | did not | enhanced the maximal stimulation of the cells | proliferative response ([5]; differing ConA concentrations 0.1-10 μg/ml, harvest 72 hours (FIG. 5)): has no effect on the assay until the highest dose of ConA |
| 5-methyl hydroxytryptamine | slight enhancement | – | – | – | – | – | – | – |
